# Where a name gives a salt, the structure may show the parent alone.
# Assays:
# TDO in A172 cells = biological target: T1, TDO in A172 cells (Homo sapiens, UniProt P48775); assay: TDO cell-based assay, kynurenine production in A172 cells; details: A 172; final concentration of the compound 10 μM; rate relative to culture without compound
# T1 construct: endogenous in cells; host or cells: A172 cells
# Description: A172 cells (3.0×10^5 cells/mL) suspended in a culture medium for assay (PRMI-1640; Wako 186-02155, 5% FBS, 50 units/mL penicillin, and 50 μg/mL streptomycin) were inoculated at 100 μL/well to a transparent 96-well flat-bottomed plate and cultured at 37° C. for 24 hours in 5% CO2. The culture medium was removed from the cells thus cultured. A culture medium for assay was added at 80 μL/well, and further, a compound solution was added at 10 μL/well. The cells were preincubated for 1 hour. Then, the whole amount was brought to 100 μL/well by the addition of 10 μL/well of a 5 mM aqueous tryptophan solution (final concentration of L-tryptophan: 524 μM), and the cells were cultured for 24 hours. After the culture, absorbance was measured at 460 nm using SpectraMax MSSK (Molecular Devices, LLC) (background measurement). After the measurement, a kynurenine quantification reagent (prepared with 7% [v/v] aqueous trichloroacetic acid solution and a solution of 2% [w/v] p-dimethylbenzaldehyde in acetic acid at 2:5 [v/v]) was added at 200 μL/well and reacted for 5 minutes, followed by the measurement of absorbance at 460 nm again. The rate of kynurenine production was calculated according to the following expression. Rate of kynurenine production (%) for each compound in the case of using A172 cells={(Absorbance at 460 nm in the tryptophan-containing culture medium comprising the A172 cells and the solution of the compound of the present invention−Absorbance of the background)/(Absorbance at 460 nm in the tryptophan-containing culture medium without the addition of the compound solution−Absorbance of the background)}×100
# IDO in A431 cells = biological target: T2, IDO in A431 cells (Homo sapiens, UniProt P14902); assay: IDO cell-based assay, kynurenine production in IFN-γ stimulated A431 cells; details: A-431, 24 h; final concentration of the compound 10 μM; rate relative to culture without compound
# T2 construct: endogenous in cells; host or cells: A431 cells, IFN-γ stimulated
# T2 sequence (P14902 whole entry): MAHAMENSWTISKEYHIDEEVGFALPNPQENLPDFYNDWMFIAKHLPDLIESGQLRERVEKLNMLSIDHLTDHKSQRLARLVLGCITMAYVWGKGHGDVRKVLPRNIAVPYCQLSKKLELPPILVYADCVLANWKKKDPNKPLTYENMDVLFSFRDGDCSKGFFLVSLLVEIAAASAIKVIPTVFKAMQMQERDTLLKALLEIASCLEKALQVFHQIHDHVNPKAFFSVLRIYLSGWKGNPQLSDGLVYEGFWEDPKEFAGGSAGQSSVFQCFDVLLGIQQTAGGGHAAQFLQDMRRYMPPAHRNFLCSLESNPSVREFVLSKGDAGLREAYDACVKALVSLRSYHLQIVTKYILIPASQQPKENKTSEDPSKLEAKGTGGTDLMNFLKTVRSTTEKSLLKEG
# Description: A431 cells (3.0×10^5 cells/mL) suspended in a culture medium for assay (D-MEM; Wako 040-30095, 5% FBS, 50 units/mL penicillin, 50 μg/mL streptomycin, and 2 mM L-glutamine) were inoculated at 100 μL/well to a transparent 96-well flat-bottomed plate and cultured at 37° C. for 24 hours in 5% CO2. The culture medium was removed from the cells thus cultured. A tryptophan-containing culture medium (culture medium for assay supplemented with 178 μM L-tryptophan) was added at 80 μL/well, and further, a compound solution was added at 10 μL/well. The cells were preincubated for 1 hour. Then, the whole amount was brought to 100 μL/well by the addition of 10 μL/well of IFN-γ diluted into 100 ng/mL with a tryptophan-containing culture medium, and the cells were cultured for 24 hours. After the culture, absorbance was measured at 460 nm using SpectraMax MSSK (Molecular Devices, LLC) (background measurement). After the measurement, a kynurenine quantification reagent (prepared with 7% [v/v] aqueous trichloroacetic acid solution and a solution of 2% [w/v] p-dimethylbenzaldehyde in acetic acid at 2:5 [v/v]) was added at 200 μL/well and reacted for 5 minutes, followed by the measurement of absorbance at 460 nm again. The rate of kynurenine production was calculated according to the following expression. Rate of kynurenine production (%) for each compound in the case of using A431 cells={(Absorbance at 460 nm in the tryptophan-containing culture medium comprising the A431 cells and the solution of the compound of the present invention−Absorbance of the background)/(Absorbance at 460 nm in the tryptophan-containing culture medium without the addition of the compound solution−Absorbance of the background)}×100 TDO Cell-Based Assay Protocol
# [1] = biological target: rhIDO (recombinant human IDO) (Homo sapiens, UniProt P14902); assay: Enzyme assay using rhIDO (rate of kynurenine production); format: biochemical; details: 2 h; final concentration of the compound 10 μM; rate relative to reaction without compound; read-out: rhIDO-mediated kynurenine production
# Sequence of rhIDO (recombinant human IDO) (P14902 whole entry): as above
# Description: Enzyme Assay Protocol Using rhIDO (Recombinant Human IDO)
# 4 μL of a compound solution was added to 176 μL of a rhIDO reaction solution (0.5 M potassium phosphate buffer (20 μL), 0.2 M ascorbic acid (20 μL), 0.5 mM methylene blue (4 μL), 10 mg/mL catalase (2 μL), H2O (128 μL), and rhIDO (2 μL)). The mixture was pipetted and preincubated at 37° C. for 10 minutes. Then, the whole amount was brought to 200 μL by the addition of 20 μL of a 2 mM aqueous tryptophan solution, and the mixture was pipetted again and reacted at 37° C. for 120 minutes. After the reaction, the enzymatic reaction was terminated by the addition of 40 μL of a 30% [v/v] aqueous trichloroacetic acid solution to the reaction solution. The mixture was well stirred by pipetting and heated at 50° C. for 15 minutes so that N-formylkynurenine was converted to kynurenine. The reaction solution thus heated was centrifuged (15,000 rpm, 5 min, 24° C.), and 150 μL of the supernatant was transferred to a transparent 96-well flat-bottomed plate, followed by the measurement of absorbance at 490 nm using SpectraMax MSSK (background measurement). After the measurement, a solution of 2% [w/v] p-dimethylbenzaldehyde in acetic acid was added at 150 μL/well and reacted for 5 minutes, followed by the measurement of absorbance at 490 nm again. The rate of kynurenine production was calculated according to the following expression. Rate of kynurenine production (%) for each compound in the case of using rhIDO={(Absorbance at 490 nm in the tryptophan-containing aqueous solution comprising rhIDO and the compound of the present invention−Absorbance of the background)/(Absorbance at 490 nm in the tryptophan-containing aqueous solution without the addition of the compound solution−Absorbance of the background)}×100 Enzyme Assay Protocol Using rhTDO (Recombinant Human TDO)
# [2] = biological target: rhTDO (recombinant human TDO) (Homo sapiens, UniProt P48775); assay: Enzyme assay using rhTDO (rate of kynurenine production); format: biochemical; details: 2 h; final concentration of the compound 10 μM; rate relative to reaction without compound; read-out: rhTDO-mediated kynurenine production
# Sequence of rhTDO (recombinant human TDO) (P48775 whole entry): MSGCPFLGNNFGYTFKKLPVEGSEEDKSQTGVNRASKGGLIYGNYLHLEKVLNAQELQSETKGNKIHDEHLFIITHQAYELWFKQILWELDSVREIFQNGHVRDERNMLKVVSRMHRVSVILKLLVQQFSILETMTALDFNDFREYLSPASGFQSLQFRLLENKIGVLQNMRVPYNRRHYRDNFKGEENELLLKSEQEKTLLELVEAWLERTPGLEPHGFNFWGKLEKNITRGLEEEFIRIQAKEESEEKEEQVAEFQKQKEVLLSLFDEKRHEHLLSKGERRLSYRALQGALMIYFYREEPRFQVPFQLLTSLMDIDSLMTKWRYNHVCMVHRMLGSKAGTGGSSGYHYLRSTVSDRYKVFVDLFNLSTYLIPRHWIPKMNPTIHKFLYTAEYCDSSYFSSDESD
# Description: 4 μL of a compound solution was added to 176 μL of a rhTDO reaction solution (0.5 M potassium phosphate buffer (20 μL), 0.2 M ascorbic acid (20 μL), 0.5 mM methylene blue (4 μL), 10 mg/mL catalase (2 μL), H2O (128 μL), and rhTDO (2 μL)). The mixture was pipetted and preincubated at 37° C. for 10 minutes. Then, the whole amount was brought to 200 μL by the addition of 20 μL of a 20 mM aqueous tryptophan solution, and the mixture was pipetted again and reacted at 37° C. for 120 minutes. After the reaction, the enzymatic reaction was terminated by the addition of 40 μL of a 30% [v/v] aqueous trichloroacetic acid solution to the reaction solution. The mixture was well stirred by pipetting and heated at 50° C. for 15 minutes so that N-formylkynurenine was converted to kynurenine. The reaction solution thus heated was centrifuged (15,000 rpm, 5 min, 24° C.), and 150 μL of the supernatant was transferred to a transparent 96-well flat-bottomed plate, followed by the measurement of absorbance at 490 nm using SpectraMax M5 SK (background measurement). After the measurement, a solution of 2% [w/v] p-dimethylbenzaldehyde in acetic acid was added at 150 μL/well and reacted for 5 minutes, followed by the measurement of absorbance at 490 nm again. The rate of kynurenine production was calculated according to the following expression. Rate of kynurenine production (%) for each compound in the case of using rhTDO={(Absorbance at 490 nm in the tryptophan-containing aqueous solution comprising rhTDO and the compound of the present invention−Absorbance of the background)/(Absorbance at 490 nm in the tryptophan-containing aqueous solution without the addition of the compound solution−Absorbance of the background)}×100 IDO Cell-Based Assay Protocol
# T1 sequence (P48775 whole entry): as above
SMILES,remaining activity at 10 µM (TDO in A172 cells),remaining activity at 10 µM (IDO in A431 cells),remaining activity at 10 µM [1],remaining activity at 10 µM [2]
"Brc1ccc(CSC2=NCN(CC3CC3)CN2)c(CSC2=NCN(CC3CC3)CN2)c1 [Compound 75, 6,6′-(((4-Bromo-1,2-phenylene)bis(methylene))bis(sulfanediyl))bis(3-(cyclopropylmethyl)-1,2,3,4-tetrahydro-1,3,5-triazine)]",3%,9%,35%,15%
"CNC(=O)c1cccnc1CSC(=N)N [Compound 100, (3-(Methylcarbamoyl)pyridin-2-yl)methyl carbamimidothioate hydrobromide]",123%,93%,88%,84%
"Fc1ccc(CN2CN=C(SCc3cc(Cl)c(Cl)cc3CSC3=NCN(Cc4ccc(F)c(Cl)c4)CN3)NC2)cc1Cl [Compound 139, 6,6′-(((4,5-Dichloro-1,2-phenylene)bis(methylene))bis(sulfanediyl))bis(3-(3-chloro-4-fluorobenzyl)-1,2,3,4-tetrahydro-1,3,5-triazine)]",11%,8%,24%,14%
"N=C(N)SCc1ccccc1CC(=O)NCCC1CCCCC1 [Compound 69, 2-(2-((2-Cyclohexylethyl)amino)-2-oxoethyl)benzyl carbamimidothioate hydrobromide]",73%,101%,76%,60%
"Clc1ccc(CCN2CN=C(SCc3ccc(Br)cc3CSC3=NCN(CCc4ccc(Cl)c(Cl)c4)CN3)NC2)cc1Cl [Compound 39, 6,6′-(((4-Bromo-1,2-phenylene)bis(methylene))bis(sulfanediyl))bis(3-(3,4-dichlorophenethyl)-1,2,3,4-tetrahydro-1,3,5-triazine)]",7%,0%,7%,38%
"N=C(N)[Se]Cc1cc(Br)ccc1C(=O)NCC1CC1 [Compound 107, 5-Bromo-2-((cyclopropylmethyl)carbamoyl)benzyl carbamimidoselenoate hydrobromide]",12%,44%,97%,103%
"COC(=O)c1ccccc1CSC(=N)N [Compound 55, Methyl 2-((carbamimidoylthio)methyl)benzoate hydrochloride]",121%,73%,91%,111%
"N=C(N)SCc1cc(Br)ccc1C(=O)NCc1ccc(Cl)cc1Cl [Compound 89, 5-Bromo-2-((2,4-dichlorobenzyl)carbamoyl)benzyl carbamimidothioate hydrobromide]",51%,122%,81%,12%
"FC(F)(F)c1cccc(CCN2CN=C(SCc3cc(Cl)c(Cl)cc3CSC3=NCN(CCc4cccc(C(F)(F)F)c4)CN3)NC2)c1 [Compound 152, 6,6′-(((4,5-Dichloro-1,2-phenylene)bis(methylene))bis(sulfanediyl))bis(3-(3-(trifluoromethyl)phenethyl)-1,2,3,4-tetrahydro-1,3,5-triazine)]",6%,9%,7%,7%
"N#Cc1ccc(CNC(=O)c2cc(Br)ccc2CS/C(N)=N/c2ccc(Br)cc2)cc1 [Compound 119, 4-Bromo-2-((4-cyanobenzyl)carbamoyl)benzyl (E)-N′-(4-bromophenyl)carbamimidothioate hydrobromide]",12%,4%,25%,50%
"N=C(N)SCc1nc2ccccc2nc1CSC(=N)N [Compound 5, quinoxaline-2,3-dilylbis(methylene) dicarbamimidothioate dihydrobromide]",113%,85%,69%,84%
"COc1ccc(CCN2CN=C(SCc3ccc(F)cc3CSC3=NCN(CCc4ccc(OC)cc4)CN3)NC2)cc1 [Compound 147, 6,6′-(((4-Fluoro-1,2-phenylene)bis(methylene))bis(sulfanediyl))bis(3-(4-methoxyphenethyl)-1,2,3,4-tetrahydro-1,3,5-triazine)]",16%,16%,32%,10%

# Reference: patent US12209079B2 (GENERAL INCORPORATED ASSOCIATION PHARMA VALLEY PROJECT …, priority 2017, dated 2025)
